# Data as given in ChEMBL document CHEMBL1135302, “Optimization of the 4-aryl group of 4-aryl-pyridine glucagon antagonists: development of an efficient, alternative synthesis” (Bioorg Med Chem Lett, 2002).
# Biological target: T1, Glucagon receptor (Homo sapiens, UniProt P47871)
# Assay: biochemical
# Description: Tested for its inhibitory activity against human glucagon receptor (hGR) expressed in CHO cells
# T1 sequence (P47871 whole entry): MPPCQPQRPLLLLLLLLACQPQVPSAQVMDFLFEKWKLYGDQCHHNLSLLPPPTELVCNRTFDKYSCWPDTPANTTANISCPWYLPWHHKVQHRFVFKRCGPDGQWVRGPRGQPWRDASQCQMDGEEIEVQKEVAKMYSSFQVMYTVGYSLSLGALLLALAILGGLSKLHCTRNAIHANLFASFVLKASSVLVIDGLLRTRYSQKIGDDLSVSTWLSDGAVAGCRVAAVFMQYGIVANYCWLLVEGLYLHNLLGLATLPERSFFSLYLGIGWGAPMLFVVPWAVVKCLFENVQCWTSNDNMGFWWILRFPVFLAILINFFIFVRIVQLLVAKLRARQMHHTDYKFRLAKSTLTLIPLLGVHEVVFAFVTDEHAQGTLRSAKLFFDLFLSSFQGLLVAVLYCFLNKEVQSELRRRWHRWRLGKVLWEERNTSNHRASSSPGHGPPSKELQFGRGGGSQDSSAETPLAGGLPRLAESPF
row,SMILES,IC50 [µM]
1,CCCCCc1c(C(C)C)nc(C(C)C)c(CO)c1-c1ccc(F)cc1F,11
2,CCCCCc1c(C(C)C)nc(C(C)C)c(CO)c1-c1ccc(F)c(CO)c1,19
3,CCCCCc1c(C(C)C)nc(C(C)C)c(CO)c1-c1ccc(F)cc1O,0.19
4,CCCCCc1c(C(C)C)nc(C(C)C)c(CO)c1-c1ccccc1N,2.3
5,CCCCCc1c(C(C)C)nc(C(C)C)c(CO)c1-c1cccc(OC)c1,48
6,CC(C)=Cc1c(C(C)C)nc(C(C)C)c(O)c1-c1ccc(F)cc1,7

# Biological target: T1, Glucagon receptor
# Assay: Percentage inhibition of human glucagon receptor function expressed in CHO cells at a concentration of 20 uM.
# Format: cell-based
row,SMILES,inhibition [%]
1,CCCCCc1c(C(C)C)nc(C(C)C)c(CO)c1-c1ccc(Cl)cc1Cl,8
2,CCCCCc1c(C(C)C)nc(C(C)C)c(CO)c1-c1ccccc1CO,44
3,CCCCCc1c(C(C)C)nc(C(C)C)c(CO)c1-c1ccc(C(F)(F)F)cc1,35
4,CCC/C=C/c1c(C(C)C)nc(C(C)C)c(CO)c1-c1ccc(S(C)(=O)=O)cc1,14
5,CCCCCc1c(C(C)C)nc(C(C)C)c(CO)c1-c1ccccc1C,33
6,CCCCCc1c(C(C)C)nc(C(C)C)c(CO)c1-c1ccc2c(c1)CCCC2,37
7,CCCCCc1c(C(C)C)nc(C(C)C)c(CO)c1-c1ccc(O)cc1,24
8,CCCCCc1c(C(C)C)nc(C(C)C)c(CO)c1-c1ccccc1NC(C)=O,13
9,CCCCCc1c(C(C)C)nc(C(C)C)c(CO)c1-c1ccc(OC)cc1,37
10,CCCCCc1c(C(C)C)nc(C(C)C)c(CO)c1-c1ccc(-c2ccccc2)cc1,2
11,CCCCCc1c(C(C)C)nc(C(C)C)c(CO)c1-c1ccc2ccccc2c1,16
12,CCCCCc1c(C(C)C)nc(C(C)C)c(C)c1-c1ccccc1O,11
13,CCCCCc1c(C(C)C)nc(C(C)C)c(CO)c1-c1ccc(CC)cc1,42
14,CCCCCc1c(C(C)C)nc(C(C)C)c(CO)c1-c1cccc2ccccc12,6
15,CCCCCc1c(C(C)C)nc(C(C)C)c(CO)c1-c1cccc(C(F)(F)F)c1,25
16,CCC/C=C/c1c(C(C)C)nc(C(C)C)c(CO)c1-c1ccc(Cl)c(Cl)c1,39
17,CCCCCc1c(C(C)C)nc(C(C)C)c(CO)c1-c1cccc(Cl)c1,49
18,CCCCCc1c(C(C)C)nc(C(C)C)c(CO)c1-c1ccc(C(C)C)cc1,34
19,CCCCCc1c(C(C)C)nc(C(C)C)c(CO)c1-c1ccccc1OC,27
20,CCCCCc1c(C(C)C)nc(C(C)C)c(CO)c1-c1cccc(C)c1,46

# Biological target: T1, Glucagon receptor
# Assay: Tested for its ability to inhibit cAMP production in human glucagon receptor expressed CHO cells
# Format: functional, cell-based
row,SMILES,IC50 [µM]
1,CCCCCc1c(C(C)C)nc(C(C)C)c(CO)c1-c1ccc(F)cc1,0.4
2,CCCCCc1c(C(C)C)nc(C(C)C)c(CO)c1-c1ccc(F)cc1O,0.12
